According to PMC4685510, “A Cell Biologist’s Field Guide to Aurora Kinase Inhibitors” (Frontiers in Oncology, 2015):
Like-named read-outs stand apart in the source and are kept apart here.

Tests used:
Assay in all cases: biochemical
Assay type in all cases: biochemical
[1] = target: T1, 363 human kinases (including Aurora A/B/C) (Homo sapiens, UniProt Q14164); conditions: for remaining activity at 0.1 µM: 100 nM
T1 sequence (Q14164 1-716): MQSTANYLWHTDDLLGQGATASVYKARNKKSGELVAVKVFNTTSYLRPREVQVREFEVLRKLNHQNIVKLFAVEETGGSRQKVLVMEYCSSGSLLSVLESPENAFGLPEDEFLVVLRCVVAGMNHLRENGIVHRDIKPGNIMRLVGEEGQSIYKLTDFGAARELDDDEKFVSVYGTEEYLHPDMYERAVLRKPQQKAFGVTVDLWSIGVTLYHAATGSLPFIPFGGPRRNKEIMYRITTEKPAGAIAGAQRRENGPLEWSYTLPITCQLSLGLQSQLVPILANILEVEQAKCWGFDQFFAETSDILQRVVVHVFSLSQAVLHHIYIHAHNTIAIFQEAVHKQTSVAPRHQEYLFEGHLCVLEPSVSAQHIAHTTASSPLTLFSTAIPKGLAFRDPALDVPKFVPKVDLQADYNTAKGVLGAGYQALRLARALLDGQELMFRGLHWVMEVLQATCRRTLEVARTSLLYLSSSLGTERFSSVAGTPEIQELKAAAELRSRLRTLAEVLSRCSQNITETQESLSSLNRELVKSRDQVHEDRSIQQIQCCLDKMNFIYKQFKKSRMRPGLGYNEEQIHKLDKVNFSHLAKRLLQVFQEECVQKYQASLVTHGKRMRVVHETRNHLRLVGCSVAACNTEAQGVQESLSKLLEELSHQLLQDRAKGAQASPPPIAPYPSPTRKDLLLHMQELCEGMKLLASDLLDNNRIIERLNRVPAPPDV
Source text: (§1) However, the Aurora A/B selectivity ratios derived from our in vitro and in vivo data can be compared to prioritize inhibitors.

[2] = target: T2, 363 human kinases (including Aurora A/B/C) (Homo sapiens, UniProt Q9HBY8); conditions: SGK2; for remaining activity at 0.1 µM: 100 nM; for remaining activity at 0.1 µM / remaining activity at 0.5 µM: read-out: % Enzyme Activity (relative to DMSO controls)
T2 sequence (Q9HBY8 1-367): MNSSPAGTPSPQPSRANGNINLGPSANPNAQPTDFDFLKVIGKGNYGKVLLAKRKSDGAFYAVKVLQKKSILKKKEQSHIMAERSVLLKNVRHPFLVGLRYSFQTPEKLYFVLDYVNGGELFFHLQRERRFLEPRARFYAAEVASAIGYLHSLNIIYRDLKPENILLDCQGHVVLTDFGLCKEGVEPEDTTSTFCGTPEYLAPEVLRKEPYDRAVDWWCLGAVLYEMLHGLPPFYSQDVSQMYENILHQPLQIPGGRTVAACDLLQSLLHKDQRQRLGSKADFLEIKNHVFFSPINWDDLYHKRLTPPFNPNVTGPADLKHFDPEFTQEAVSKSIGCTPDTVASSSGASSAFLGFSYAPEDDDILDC
Source text: as §1

[3] = target: 363 human kinases (including Aurora A/B/C) (Homo sapiens, UniProt Q15208); conditions: STK38/NDR1; for remaining activity at 0.1 µM: 100 nM; for remaining activity at 0.1 µM / remaining activity at 0.5 µM: read-out: % Enzyme Activity (relative to DMSO controls)
363 human kinases (including Aurora A/B/C) (Homo sapiens, UniProt Q15208), sequence (Q15208 whole entry): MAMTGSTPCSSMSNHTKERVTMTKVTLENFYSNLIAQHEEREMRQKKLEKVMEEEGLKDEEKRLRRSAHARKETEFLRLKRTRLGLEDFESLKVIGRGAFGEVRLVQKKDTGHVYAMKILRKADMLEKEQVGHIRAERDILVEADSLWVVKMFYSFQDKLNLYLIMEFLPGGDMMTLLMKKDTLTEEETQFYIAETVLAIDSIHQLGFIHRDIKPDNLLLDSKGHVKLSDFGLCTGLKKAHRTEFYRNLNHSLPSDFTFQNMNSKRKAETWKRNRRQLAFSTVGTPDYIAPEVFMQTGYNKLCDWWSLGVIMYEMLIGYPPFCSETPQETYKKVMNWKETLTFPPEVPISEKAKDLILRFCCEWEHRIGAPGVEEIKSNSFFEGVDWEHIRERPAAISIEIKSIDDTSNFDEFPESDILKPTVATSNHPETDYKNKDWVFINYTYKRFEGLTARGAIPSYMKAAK
Source text: as §1

[4] = target: 363 human kinases (including Aurora A/B/C) (Homo sapiens, UniProt P49759); conditions: CLK1, [ATP] 2.5 µM; for remaining activity at 0.1 µM: 100 nM; for remaining activity at 0.1 µM / remaining activity at 0.5 µM: read-out: % Enzyme Activity (relative to DMSO controls)
363 human kinases (including Aurora A/B/C) (Homo sapiens, UniProt P49759), sequence (P49759 whole entry): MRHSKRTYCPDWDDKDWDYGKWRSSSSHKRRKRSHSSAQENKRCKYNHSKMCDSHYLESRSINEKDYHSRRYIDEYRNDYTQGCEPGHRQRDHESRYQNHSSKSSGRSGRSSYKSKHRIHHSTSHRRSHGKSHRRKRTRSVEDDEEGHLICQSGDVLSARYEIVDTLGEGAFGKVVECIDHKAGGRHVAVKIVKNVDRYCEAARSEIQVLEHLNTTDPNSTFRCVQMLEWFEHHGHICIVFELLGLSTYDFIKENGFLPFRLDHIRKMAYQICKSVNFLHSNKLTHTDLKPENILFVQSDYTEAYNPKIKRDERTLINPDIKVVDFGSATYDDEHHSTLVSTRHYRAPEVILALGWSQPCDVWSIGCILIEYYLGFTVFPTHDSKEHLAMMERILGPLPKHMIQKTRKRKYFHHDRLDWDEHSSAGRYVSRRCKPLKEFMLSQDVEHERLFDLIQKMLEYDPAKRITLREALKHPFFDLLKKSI
Source text: as §1

[5] = target: 363 human kinases (including Aurora A/B/C) (Homo sapiens, UniProt Q9H792); conditions: PEAK1; for remaining activity at 0.1 µM: 100 nM; for remaining activity at 0.1 µM / remaining activity at 0.5 µM: read-out: % Enzyme Activity (relative to DMSO controls)
363 human kinases (including Aurora A/B/C) (Homo sapiens, UniProt Q9H792), sequence (Q9H792 whole entry): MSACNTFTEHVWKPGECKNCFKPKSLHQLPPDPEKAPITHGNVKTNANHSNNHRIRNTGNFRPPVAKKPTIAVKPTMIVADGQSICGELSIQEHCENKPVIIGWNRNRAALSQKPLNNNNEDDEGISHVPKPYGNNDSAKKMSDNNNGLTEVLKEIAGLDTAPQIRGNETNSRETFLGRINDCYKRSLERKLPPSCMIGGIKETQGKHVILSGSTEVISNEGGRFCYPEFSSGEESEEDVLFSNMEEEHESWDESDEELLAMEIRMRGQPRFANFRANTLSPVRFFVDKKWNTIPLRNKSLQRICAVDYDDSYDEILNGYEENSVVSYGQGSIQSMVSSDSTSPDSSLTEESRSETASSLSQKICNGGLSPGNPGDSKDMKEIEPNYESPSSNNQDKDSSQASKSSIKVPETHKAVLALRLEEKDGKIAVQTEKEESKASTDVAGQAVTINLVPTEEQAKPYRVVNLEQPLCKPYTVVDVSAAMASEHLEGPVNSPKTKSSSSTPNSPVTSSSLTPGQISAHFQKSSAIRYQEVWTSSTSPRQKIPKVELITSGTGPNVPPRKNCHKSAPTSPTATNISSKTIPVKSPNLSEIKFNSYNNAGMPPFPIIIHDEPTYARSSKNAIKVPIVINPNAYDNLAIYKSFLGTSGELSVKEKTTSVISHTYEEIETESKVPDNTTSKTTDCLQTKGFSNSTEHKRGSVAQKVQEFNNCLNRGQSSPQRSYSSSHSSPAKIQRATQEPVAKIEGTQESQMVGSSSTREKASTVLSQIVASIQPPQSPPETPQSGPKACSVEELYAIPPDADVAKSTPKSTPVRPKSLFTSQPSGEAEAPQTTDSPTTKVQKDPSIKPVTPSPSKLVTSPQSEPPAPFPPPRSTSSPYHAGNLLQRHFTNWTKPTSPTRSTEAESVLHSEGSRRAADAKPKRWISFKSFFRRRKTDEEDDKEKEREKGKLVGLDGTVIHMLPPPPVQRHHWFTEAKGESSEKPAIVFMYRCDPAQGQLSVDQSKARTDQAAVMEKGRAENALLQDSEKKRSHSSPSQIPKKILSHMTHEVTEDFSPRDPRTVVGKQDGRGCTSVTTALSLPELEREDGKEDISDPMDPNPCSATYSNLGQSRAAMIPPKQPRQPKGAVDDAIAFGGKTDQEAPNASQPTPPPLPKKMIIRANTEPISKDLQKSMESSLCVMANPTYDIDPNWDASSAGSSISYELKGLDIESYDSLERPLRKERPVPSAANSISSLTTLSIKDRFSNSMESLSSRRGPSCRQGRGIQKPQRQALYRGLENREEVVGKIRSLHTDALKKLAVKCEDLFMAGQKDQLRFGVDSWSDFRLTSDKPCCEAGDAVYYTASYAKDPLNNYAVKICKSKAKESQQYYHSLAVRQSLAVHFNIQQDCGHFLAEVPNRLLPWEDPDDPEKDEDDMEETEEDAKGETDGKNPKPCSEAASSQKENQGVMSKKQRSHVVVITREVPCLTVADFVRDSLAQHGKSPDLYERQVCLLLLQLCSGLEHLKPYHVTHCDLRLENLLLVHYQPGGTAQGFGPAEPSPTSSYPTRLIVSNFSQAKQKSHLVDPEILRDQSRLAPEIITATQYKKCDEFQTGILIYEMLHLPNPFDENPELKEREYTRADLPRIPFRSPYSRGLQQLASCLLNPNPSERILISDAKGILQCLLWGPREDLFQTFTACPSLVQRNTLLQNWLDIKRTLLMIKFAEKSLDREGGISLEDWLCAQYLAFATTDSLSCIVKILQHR
Source text: as §1

[6] = target: 363 human kinases (including Aurora A/B/C) (Homo sapiens, UniProt Q13627); conditions: DYRK1/DYRK1A, [ATP] 50 µM; for remaining activity at 0.1 µM: 100 nM; for remaining activity at 0.1 µM / remaining activity at 0.5 µM: read-out: % Enzyme Activity (relative to DMSO controls)
Source text: as §1

[7] = target: 363 human kinases (including Aurora A/B/C) (Homo sapiens, UniProt Q9UIK4); conditions: DAPK2, [ATP] 5 µM; for remaining activity at 0.1 µM: 100 nM; for remaining activity at 0.1 µM / remaining activity at 0.5 µM: read-out: % Enzyme Activity (relative to DMSO controls)
363 human kinases (including Aurora A/B/C) (Homo sapiens, UniProt Q9UIK4), sequence (Q9UIK4 whole entry): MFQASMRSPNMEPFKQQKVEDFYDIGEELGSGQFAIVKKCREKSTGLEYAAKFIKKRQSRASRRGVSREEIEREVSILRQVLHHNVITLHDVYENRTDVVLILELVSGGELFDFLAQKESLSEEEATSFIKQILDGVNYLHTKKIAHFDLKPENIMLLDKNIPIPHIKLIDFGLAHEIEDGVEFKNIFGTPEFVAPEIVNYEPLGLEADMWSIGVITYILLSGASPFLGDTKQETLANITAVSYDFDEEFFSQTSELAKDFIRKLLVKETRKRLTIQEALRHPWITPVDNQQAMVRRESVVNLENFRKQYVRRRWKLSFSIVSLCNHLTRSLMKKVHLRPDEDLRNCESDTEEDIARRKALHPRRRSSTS
Source text: as §1

[8] = target: T3, 363 human kinases (including Aurora A/B/C) (Homo sapiens, UniProt Q92630); conditions: DYRK2, [ATP] 5 µM; for remaining activity at 0.1 µM: 100 nM; for remaining activity at 0.1 µM / remaining activity at 0.5 µM: read-out: % Enzyme Activity (relative to DMSO controls)
T3 sequence (Q92630 1-601): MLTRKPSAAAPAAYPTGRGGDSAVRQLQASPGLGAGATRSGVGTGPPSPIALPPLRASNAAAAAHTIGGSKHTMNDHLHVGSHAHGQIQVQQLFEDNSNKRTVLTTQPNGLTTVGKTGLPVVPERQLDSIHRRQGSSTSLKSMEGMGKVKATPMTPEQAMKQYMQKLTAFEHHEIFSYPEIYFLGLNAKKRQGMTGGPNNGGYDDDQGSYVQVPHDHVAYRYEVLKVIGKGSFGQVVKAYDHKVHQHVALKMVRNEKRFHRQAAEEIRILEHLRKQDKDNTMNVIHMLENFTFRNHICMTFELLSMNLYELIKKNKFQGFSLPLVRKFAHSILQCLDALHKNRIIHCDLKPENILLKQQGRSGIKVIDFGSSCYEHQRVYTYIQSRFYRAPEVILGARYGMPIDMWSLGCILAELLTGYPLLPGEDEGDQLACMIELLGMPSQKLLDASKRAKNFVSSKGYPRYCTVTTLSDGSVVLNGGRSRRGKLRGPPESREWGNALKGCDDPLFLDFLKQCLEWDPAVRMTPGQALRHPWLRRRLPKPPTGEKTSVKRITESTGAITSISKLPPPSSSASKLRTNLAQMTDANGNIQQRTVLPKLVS
Source text: as §1

[9] = target: 363 human kinases (including Aurora A/B/C) (Homo sapiens, UniProt P27361); conditions: ERK1, [ATP] 100 µM; for remaining activity at 0.1 µM: 100 nM; for remaining activity at 0.1 µM / remaining activity at 0.5 µM: read-out: % Enzyme Activity (relative to DMSO controls)
363 human kinases (including Aurora A/B/C) (Homo sapiens, UniProt P27361), sequence (P27361 whole entry): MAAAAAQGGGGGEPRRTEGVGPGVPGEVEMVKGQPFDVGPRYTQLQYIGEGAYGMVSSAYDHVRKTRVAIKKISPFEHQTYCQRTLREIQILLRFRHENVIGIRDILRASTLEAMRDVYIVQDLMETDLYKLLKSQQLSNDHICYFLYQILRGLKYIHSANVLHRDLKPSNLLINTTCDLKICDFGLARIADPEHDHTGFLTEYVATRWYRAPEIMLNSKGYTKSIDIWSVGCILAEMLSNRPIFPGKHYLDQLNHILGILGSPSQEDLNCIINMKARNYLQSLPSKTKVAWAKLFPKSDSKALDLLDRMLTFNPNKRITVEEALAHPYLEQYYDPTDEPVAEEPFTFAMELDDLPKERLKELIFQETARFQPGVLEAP
Source text: as §1

[10] = target: T4, 363 human kinases (including Aurora A/B/C) (Homo sapiens, UniProt O14965); conditions: [ATP] 2.5 µM; for remaining activity at 0.1 µM: 100 nM
T4 sequence (O14965 1-403): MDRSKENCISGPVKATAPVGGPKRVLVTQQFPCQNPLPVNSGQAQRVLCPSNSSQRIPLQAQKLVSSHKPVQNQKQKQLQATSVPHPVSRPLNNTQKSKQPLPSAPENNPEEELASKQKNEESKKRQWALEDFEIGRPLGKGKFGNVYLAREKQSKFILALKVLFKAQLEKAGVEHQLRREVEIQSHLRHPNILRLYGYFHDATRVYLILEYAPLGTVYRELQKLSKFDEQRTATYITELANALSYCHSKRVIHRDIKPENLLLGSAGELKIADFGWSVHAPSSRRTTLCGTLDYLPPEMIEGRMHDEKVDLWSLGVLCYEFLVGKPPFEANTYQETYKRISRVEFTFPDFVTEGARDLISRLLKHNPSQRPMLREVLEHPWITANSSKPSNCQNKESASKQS
Source text: as §1

[11] = IKKe/IKBKE, 500 nM, read-out: % Enzyme Activity (relative to DMSO controls)

Row | Structure (SMILES) | remaining activity at 0.1 µM [2] | remaining activity at 0.1 µM [3] | remaining activity at 0.1 µM [4] | remaining activity at 0.1 µM [5] | remaining activity at 0.1 µM [6] | remaining activity at 0.1 µM [7] | remaining activity at 0.1 µM [8] | remaining activity at 0.1 µM [9] | remaining activity at 0.5 µM [1, 11] | remaining activity at 0.5 µM ([2]; 500 nM) | remaining activity at 0.5 µM ([3]; 500 nM) | remaining activity at 0.5 µM ([4]; 500 nM) | remaining activity at 0.5 µM ([5]; 500 nM) | remaining activity at 0.5 µM ([6]; 500 nM) | remaining activity at 0.5 µM ([7]; 500 nM) | remaining activity at 0.5 µM ([8]; 500 nM) | remaining activity at 0.5 µM ([9]; 500 nM) | further results
1 | CCn1cc(-c2ccnc3[nH]c(-c4cccc(CN(C)C)c4)cc23)c(-c2ccc(NC(=O)N(C)C)cc2)n1 [GSK1070916] | 102% | 88% | 114% | 90% | 97.5% | 111% | 108% | 109% | – | – | – | – | – | – | – | – | – | remaining activity at 0.1 µM ([1]; read-out: % Enzyme Activity (relative to DMSO controls), IKKe/IKBKE): 84.4%; remaining activity at 0.1 µM ([10]; read-out: % Enzyme Activity (relative to DMSO controls), Aurora A): 25.9%
2 | O=C(O)[C@]1(Cc2cccc(Nc3nccs3)n2)CC[C@@H](Oc2cccc(Cl)c2F)CC1 [MK-5108] | 105% | 96% | 68.1% | 30.5% | 100% | 103% | 82% | 88.9% | 80.6% | 105% | 86.5% | 29.1% | 11.6% | 89.7% | 111% | 56.2% | 107% | remaining activity at 0.1 µM ([1]; IKKe/IKBKE, read-out: % Enzyme Activity (relative to DMSO controls)): 98.3%; remaining activity at 0.1 µM ([10]; Aurora A, read-out: % Enzyme Activity (relative to DMSO controls)): 2.38%
3 | O=C(c1cccc(Cl)c1F)N1CCN(Cc2cccc(Nc3nccs3)n2)CC1 [MK-8745] | – | – | – | – | – | – | – | – | 92.2% | 100% | 91.2% | 92.5% | 39.1% | 96.7% | 105% | 147% | 102% | % Enzyme Activity (relative to DMSO controls) ([1]; IKKe/IKBKE, 500 nM): 89.47%; % Enzyme Activity (relative to DMSO controls) ([2]; 500 nM): 98.06%; % Enzyme Activity (relative to DMSO controls) ([3]; 500 nM): 90.44%; % Enzyme Activity (relative to DMSO controls) ([4]; 500 nM): 91.67%; % Enzyme Activity (relative to DMSO controls) ([5]; 500 nM): 38.63%; % Enzyme Activity (relative to DMSO controls) ([6]; 500 nM): 93.95%; % Enzyme Activity (relative to DMSO controls) ([7]; 500 nM): 102.56%; % Enzyme Activity (relative to DMSO controls) ([8]; 500 nM): 138.31%; % Enzyme Activity (relative to DMSO controls) ([9]; 500 nM): 100.59%; % Enzyme Activity (relative to DMSO controls) ([10]; Aurora A, 500 nM): 0.37%; remaining activity at 0.5 µM ([10]; Aurora A, 500 nM, read-out: % Enzyme Activity (relative to DMSO controls)): 0.55%
